US8796283B2, “Indole and azaindole modulators of the alpha 7 nachr” (Proximagen Limited, priority 2009, dated 2014)
Counter-ions that a name gives are not always drawn. Like-named read-outs stand apart in the source and are kept apart here.

Molecular target: T1, human α7 nAChR (Homo sapiens, UniProt P36544)
T1 construct: expressed in transfected cells; host or cells: GH4C1 (rat pituitary) cell line, stably transfected
Assay: cell-based calcium flux assay (FLIPR) for PAM activity, nicotine-evoked response
Settings: GH4C1 cell line stably transfected with human α7 nAChR, potentiation of nicotine calcium flux
Method: The PAM activity of the compounds of the invention at the α7 nAChR may be determined using the following cell-based calcium flux assay which uses a Fluorimetric Image Plate Reader (FLIPR) (see Schroeder et al.; J. Biomolecular Screening, 1(2), p 75-80, 1996). GH4C1 cell line stably transfected with human α7 nAChR was suspended in a 384 well plate and incubated at 30° C. for 48 h in a 5% carbon dioxide atmosphere. The growth media was removed and the cells washed three times with a solution of Hanks' balanced salt solution (HBSS), 20 mM HEPES and 2.5 mM probenecid leaving 20 μl washing solution in each well. A loading solution (20 μl) containing HBSS, probenecid, 1-4 μM Fluo4 AM (a calcium indicator dye) and pluronic acid was added and the plate incubated for 45 min at 37° C. under an atmosphere free from carbon dioxide. The cells were washed three times leaving 30 μl in each well. The plate containing the cells and calcium indicator dye were then transferred to the FLIPR. The assay was initiated by collecting baseline datapoints at 10 second intervals followed by addition of the test compound in buffer solution (0.33% DMSO) and diluted to a final concentration of 10 μM and serial dilution of the wells, 1:2 or 1:3, gave a low concentration of <1 nM. Following a further 5-10 mins 10 μl of 50 μM nicotine was added and data collected for 2-3 mins. Nicotine produced a rapid, transient and reproducible calcium flux which could be potentiated with the positive allosteric modulator test compounds.

[1] = read-out: pEC50 Mean (converted)

T1 sequence (P36544 23-502): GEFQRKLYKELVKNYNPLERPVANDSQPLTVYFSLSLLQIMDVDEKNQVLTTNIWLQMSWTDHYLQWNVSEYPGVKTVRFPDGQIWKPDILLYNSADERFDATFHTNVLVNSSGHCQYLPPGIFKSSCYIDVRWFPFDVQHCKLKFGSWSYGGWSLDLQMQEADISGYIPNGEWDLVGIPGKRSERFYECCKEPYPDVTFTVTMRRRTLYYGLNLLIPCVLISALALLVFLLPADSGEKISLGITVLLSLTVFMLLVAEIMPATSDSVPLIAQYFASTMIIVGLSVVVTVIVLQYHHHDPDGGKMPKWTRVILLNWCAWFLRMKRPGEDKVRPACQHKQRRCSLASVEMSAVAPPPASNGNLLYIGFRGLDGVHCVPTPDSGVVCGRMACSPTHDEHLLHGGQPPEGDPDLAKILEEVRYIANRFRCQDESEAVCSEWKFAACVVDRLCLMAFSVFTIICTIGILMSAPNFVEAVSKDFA

Compound	EC50 [1] [µM]	further results
CCc1cc(NCc2cnc3[nH]c(C(F)(F)F)cc3c2)ncn1.Cl [5 HCl, 6-Ethyl-N-{[2-(trifluoromethyl)-1H-pyrrolo[2,3-b]pyridin-5-yl]methyl}-4-pyrimidinamine HCl]	–	pEC50 Mean: * (pEC50 mean of at least 5.0)
CC(F)(F)c1cc(NCc2cnc3[nH]c(C(F)(F)F)cc3c2)ncn1.Cl [8 HCl, 6-(1,1-Difluoroethyl)-N-{[2-(trifluoromethyl)-1H-pyrrolo[2,3-b]pyridin-5-yl]methyl}-4-pyrimidinamine hydrochloride]	–	pEC50: 6; pEC50 Mean: *** (pEC50 mean of at least 6.0)
CC(F)c1cc(NCc2cnc3[nH]c(C(F)(F)F)cc3c2)ncn1 (stereo not drawn) [9 HCl]	≤ 3.16	–
Cl.FC(F)c1cc(NCc2cnc3[nH]c(C(F)(F)F)cc3c2)ncn1 [10 HCl, 6-(Difluoromethyl)-N-{[2-(trifluoromethyl)-1H-pyrrolo[2,3-b]pyridin-5-yl]methyl}-4-pyrimidinamine hydrochloride]	–	pEC50 Mean: ** (pEC50 mean of at least 5.5)
FCc1cc(NCc2cnc3[nH]c(C(F)(F)F)cc3c2)ncn1 [11 HCl, 6-(Fluoromethyl)-N-{[2-(trifluoromethyl)-1H-pyrrolo[2,3-b]pyridin-5-yl]methyl}-4-pyrimidinamine hydrochloride]	≤ 10	–
Cl.FC(F)(F)c1cc2cc(CNc3cc(C4CC4)ncn3)cnc2[nH]1 [14 HCl]	–	pEC50 Mean: * (pEC50 mean of at least 5.0)
Cl.[2H]C([2H])(Nc1cc(C2CC2)ncn1)c1cnc2[nH]c(C(F)(F)F)cc2c1 [14-d HCl]	≤ 3.16	–
CCc1ncnc(NCc2cnc3[nH]c(C(F)(F)F)cc3c2)c1F [16 HCl, 6-Ethyl-5-fluoro-N-{[2-(trifluoromethyl}-1H-pyrrolo[2,3-b]pyridin-5-yl]methyl}-4-pyrimidinamine hydrochloride]	≤ 1	–
Cc1c(NCc2cnc3[nH]c(C(F)(F)F)cc3c2)ncnc1C(C)F (stereo not drawn) [20 HCl]	≤ 1	–
Cc1c(NCc2cnc3[nH]c(C(F)(F)F)cc3c2)ncnc1C(C)(F)F [21 HCl]	≤ 1	–
Cc1c(NCc2cnc3[nH]c(C(F)(F)F)cc3c2)ncnc1C(F)(F)F [22 HCl, 5-Methyl-6-(trifluoromethyl)-N-{[2-(trifluoromethyl)-1H-pyrrolo[2,3-b]pyridin-5-yl]methyl}-4-pyrimidinamine hydrochloride]	≤ 1	–
Cc1c(CF)ncnc1NCc1cnc2[nH]c(C(F)(F)F)cc2c1 [24 HCl]	≤ 10	–
Cc1c(NCc2cnc3[nH]c(C(F)(F)F)cc3c2)ncnc1C1CC1 [25 HCl, 6-Cyclopropyl-5-methyl-N-{[2-(trifluoromethyl)-1H-pyrrolo[2,3-b)pyridin-5-yl]methyl}-4-pyrimidinamine hydrochloride]	≤ 3.16	–
FC(F)(F)c1cc(NCc2cnc3[nH]c(C(F)(F)F)cc3c2)ncn1 [Example 1, 6-(Trifluoromethyl)-N-{[2-(trifluoromethyl)-1H-pyrrolo[2,3-b]pyridin-5-yl]methyl}-4-pyrimidinamine]	≤ 1	–
CC(C)c1cc(NCc2cnc3[nH]c(C(F)(F)F)cc3c2)ncn1 [Example 2, 6-(1-Methylethyl)-N-{[2-(trifluoromethyl)-1H-pyrrolo[2,3-b]pyridin-5-yl]methyl}-4-pyrimidinamine]	≤ 10	–
N#Cc1cc(NCc2cnc3[nH]c(C(F)(F)F)cc3c2)ncn1 [Example 3, 6-({[2-(Trifluoromethyl)-1H-pyrrolo[2,3-b]pyridin-5-yl]methyl}amino)-4-pyrimidinecarbonitrile]	≤ 3.16	–
CC(C)(C)c1cc(NCc2cnc3[nH]c(C(F)(F)F)cc3c2)ncn1 [Example 4, 6-(1,1-Dimethylethyl)-N-{[2-(trifluoromethyl)-1H-pyrrolo[2,3-b]pyridin-5-yl]methyl}-4-pyrimidinamine]	≤ 3.16	–

Compound	EC50 [1] [µM]	further results
CCc1cc(NCc2cnc3[nH]c(C(F)(F)F)cc3c2)ncn1 [Example 5, 6-Ethyl-N-{[2-(trifluoromethyl)-1H-pyrrolo[2,3-b]pyridin-5-yl]methyl}-4-pyrimidinamine]	≤ 10	–
N#CCc1cc(NCc2cnc3[nH]c(C(F)(F)F)cc3c2)ncn1 [Example 6, [6-({[2-(Trifluoromethyl)-1H-pyrrolo[2,3-b]pyridin-5-yl]methyl}amino)-4-pyrimidinyl]acetonitrile]	≤ 10	–
CC(=O)c1cc(NCc2cnc3[nH]c(C(F)(F)F)cc3c2)ncn1 [Example 7, 1-[6-({[2-(Trifluoromethyl)-1H-pyrrolo[2,3-b]pyridin-5-yl]methyl}amino)-4-pyrimidinyl]ethanone]	≤ 10	–
CC(F)(F)c1cc(NCc2cnc3[nH]c(C(F)(F)F)cc3c2)ncn1 [Example 8, 6-(1,1-Difluoroethyl)-N-{[2-(trifluoromethyl)-1H-pyrrolo[2,3-b]pyridin-5-yl]methyl}-4-pyrimidinamine]	≤ 1	EC50 (read-out: pEC50 (converted)): 1 µM
[2H]C([2H])(Nc1cc(C(C)(F)F)ncn1)c1cnc2[nH]c(C(F)(F)F)cc2c1 [Example 8-d]	≤ 3.16	EC50 (read-out: pEC50 (converted)): 1.26 µM
CC(F)c1cc(NCc2cnc3[nH]c(C(F)(F)F)cc3c2)ncn1 (stereo not drawn) [Example 9, 6-(1-Fluoroethyl)-N-{[2-(trifluoromethyl)-1H-pyrrolo[2,3-b]pyridin-5-yl]methyl}-4-pyrimidinamine]	≤ 10	–
FC(F)c1cc(NCc2cnc3[nH]c(C(F)(F)F)cc3c2)ncn1 [Example 10, 6-(Difluoromethyl)-N-{[2-(trifluoromethyl)-1H-pyrrolo[2,3-b]pyridin-5-yl]methyl}-4-pyrimidinamine]	≤ 3.16	–
FCc1cc(NCc2cnc3[nH]c(C(F)(F)F)cc3c2)ncn1 [Example 11, 6-(Fluoromethyl)-N-{[2-(trifluoromethyl)-1H-pyrrolo[2,3-b]pyridin-5-yl]methyl}-4-pyrimidinamine]	≤ 3.16	–
FC(F)(F)c1cc(NCc2ccc3[nH]c(C(F)(F)F)cc3c2)ncn1 [Example 12, 6-(Trifluoromethyl)-N-{[2-(trifluoromethyl)-1H-indol-5-yl]methyl}-4-pyrimidinamine]	≤ 3.16	–
FC(F)(F)c1cc2cc(CNc3cc(Cl)ncn3)ccc2[nH]1 [Example 13, 6-Chloro-N-{[2-(trifluoromethyl)-1H-indol-5-yl]methyl}-4-pyrimidinamine]	≤ 10	–
FC(F)(F)c1cc2cc(CNc3cc(C4CC4)ncn3)cnc2[nH]1 [Example 14, 6-Cyclopropyl-N-{[2-(trifluoromethyl)-1H-pyrrolo[2,3-b]pyridin-5-yl]methyl}-4-pyrimidinamine]	≤ 10	–
CC(C)(F)c1cc(NCc2cnc3[nH]c(C(F)(F)F)cc3c2)ncn1 [Example 15, 6-(1-Fluoro-1-methylethyl)-N-{[2-(trifluoromethyl)-1H-pyrrolo[2,3-b]pyridin-5-yl]methyl}-4-pyrimidinamine]	≤ 1	EC50 (read-out: pEC50 (converted)): 0.398 µM
[2H]C([2H])(Nc1cc(C(C)(C)F)ncn1)c1cnc2[nH]c(C(F)(F)F)cc2c1 [Example 15-d, 6-(1-Fluoro-1-methylethyl)-N-{[2-(trifluoromethyl)-1H-pyrrolo[2,3-b]pyridin-5-yl]methyl}-4-pyrimidinamine-d2]	≤ 1	EC50 (read-out: pEC50 (converted)): 0.631 µM
FC(F)(F)c1cc2cc(CNc3cc(Cl)ncn3)cnc2[nH]1 [Example 17, 6-Chloro-N-{[2-(trifluoromethyl)-1H-pyrrolo[2,3-b]pyridin-5-yl]methyl}-4-pyrimidinamine]	≤ 3.16	–
CCc1cc(NCc2ccc3[nH]c(C(F)(F)F)cc3c2)ncn1 [Example 18, 6-Ethyl-N-{[2-(trifluoromethyl)-1H-indol-5-yl]methyl}-4-pyrimidinamine]	≤ 10	–
CCc1ncnc(NCc2cnc3[nH]c(C(F)(F)F)cc3c2)c1C [Example 19, 6-Ethyl-5-methyl-N-{[2-(trifluoromethyl)-1H-pyrrolo[2,3-b]pyridin-5-yl]methyl}-4-pyrimidinamine]	≤ 10	–
Cc1c(NCc2cnc3[nH]c(C(F)(F)F)cc3c2)ncnc1C(F)F [Example 23, 6-(difluoromethyl)-5-methyl-N-{[2-(trifluoromethyl)-1H-pyrrolo[2,3-b]pyridin-5-yl]methyl}-4-pyrimidinamine]	≤ 3.16	–
